How the values were obtained:
Experiment in all cases: relative viability (nuclei count vs DMSO), 5 days (fraction); higher = more cells survive
[1] = compound: C[C@]12O[C@H](C[C@]1(O)CO)n1c3ccccc3c3c4c(c5c6ccccc6n2c5c31)CNC4=O [Lestaurtinib] + CS(=O)(=O)N1CCN(Cc2cc3nc(-c4cccc5[nH]ncc45)nc(N4CCOCC4)c3s2)CC1 [Pictilisib] (partner 1 µM)
Procedure, shortened: (§1)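 After 5 days of treatment, lung cancer cells in 1536-well plates were fixed and stained in a single step (final 0.05% Triton X-100, 1% formaldehyde, 1 ug/ml Hoechst) and their nuclei counted on 4× images. Treatment had been applied by pin tool the day after seeding as one drug alone or as a fixed anchor-drug dose with five library-drug doses (not always all listed) in √10 steps. Relative viability is the nuclei count of treated wells divided by that of vehicle wells, and values are medians of duplicate plates.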

TPCA-1 + Olaparib = compound: C1=CC(=CC=C1C2=CC(=C(S2)NC(=O)N)C(=O)N)F [TPCA-1] + O=C(c1cc(Cc2n[nH]c(=O)c3ccccc23)ccc1F)N1CCN(C(=O)C2CC2)CC1 [Olaparib] (partner 8 µM)
Procedure, shortened: as §1

TPCA-1 + OSI-027 = compound: C1=CC(=CC=C1C2=CC(=C(S2)NC(=O)N)C(=O)N)F [TPCA-1] + COc1cccc2cc(-c3nc([C@H]4CC[C@H](C(=O)O)CC4)n4ncnc(N)c34)[nH]c12 [OSI-027] (partner 0.5 µM)
Procedure, shortened: as §1

Lestaurtinib + Olaparib = compound: C[C@]12O[C@H](C[C@]1(O)CO)n1c3ccccc3c3c4c(c5c6ccccc6n2c5c31)CNC4=O [Lestaurtinib] + O=C(c1cc(Cc2n[nH]c(=O)c3ccccc23)ccc1F)N1CCN(C(=O)C2CC2)CC1 [Olaparib] (partner 8 µM)
Procedure, shortened: as §1

For NCI-H2023, the relative viability ([1]; first compound 0.005 µM) was 0.255, the relative viability ([1]; first compound 0.01581 µM) was 0.27 and the relative viability ([1]; first compound 0.05 µM) was 0.167. For the same cell line, the relative viability ([1]; first compound 0.1581 µM) was 0.155, the relative viability ([1]; first compound 0.5 µM) was 0.0782 and the relative viability (TPCA-1 + Olaparib; first compound 0.04 µM) was 0.633. It also gave a relative viability (TPCA-1 + Olaparib; first compound 0.1265 µM) of 0.445, a relative viability (TPCA-1 + Olaparib; first compound 0.4 µM) of 0.581 and a relative viability (TPCA-1 + Olaparib; first compound 1.265 µM) of 0.516. The relative viability (TPCA-1 + Olaparib; first compound 4 µM) was 0.411, the relative viability (TPCA-1 + OSI-027; first compound 0.04 µM) was 0.552 and the relative viability (TPCA-1 + OSI-027; first compound 0.1265 µM) was 0.335. For the same cell line, the relative viability (TPCA-1 + OSI-027; first compound 0.4 µM) was 0.364, the relative viability (TPCA-1 + OSI-027; first compound 1.265 µM) was 0.32 and the relative viability (TPCA-1 + OSI-027; first compound 4 µM) was 0.187. The relative viability (Lestaurtinib + Olaparib; first compound 0.005 µM) was 0.519, the relative viability (Lestaurtinib + Olaparib; first compound 0.01581 µM) was 0.493 and the relative viability (Lestaurtinib + Olaparib; first compound 0.05 µM) was 0.578. It also gave a relative viability (Lestaurtinib + Olaparib; first compound 0.1581 µM) of 0.364 and a relative viability (Lestaurtinib + Olaparib; first compound 0.5 µM) of 0.18.
With NCI-H596 the relative viability ([1]; first compound 0.005 µM) was 0.375, the relative viability ([1]; first compound 0.01581 µM) was 0.378 and the relative viability ([1]; first compound 0.05 µM) was 0.375. The relative viability ([1]; first compound 0.1581 µM) was 0.31, the relative viability ([1]; first compound 0.5 µM) was 0.293 and the relative viability (TPCA-1 + Olaparib; first compound 0.04 µM) was 0.722. For the same cell line, the relative viability (TPCA-1 + Olaparib; first compound 0.1265 µM) was 0.674, the relative viability (TPCA-1 + Olaparib; first compound 0.4 µM) was 0.671 and the relative viability (TPCA-1 + Olaparib; first compound 1.265 µM) was 0.828. It also gave a relative viability (TPCA-1 + Olaparib; first compound 4 µM) of 0.479, a relative viability (TPCA-1 + OSI-027; first compound 0.04 µM) of 0.717 and a relative viability (TPCA-1 + OSI-027; first compound 0.1265 µM) of 0.584. The relative viability (TPCA-1 + OSI-027; first compound 0.4 µM) was 0.678, the relative viability (TPCA-1 + OSI-027; first compound 1.265 µM) was 0.787 and the relative viability (TPCA-1 + OSI-027; first compound 4 µM) was 0.389. It also gave a relative viability (Lestaurtinib + Olaparib; first compound 0.005 µM) of 0.646, a relative viability (Lestaurtinib + Olaparib; first compound 0.01581 µM) of 0.669 and a relative viability (Lestaurtinib + Olaparib; first compound 0.05 µM) of 0.61. It also gave a relative viability (Lestaurtinib + Olaparib; first compound 0.1581 µM) of 0.66 and a relative viability (Lestaurtinib + Olaparib; first compound 0.5 µM) of 0.696.
With SK-MES-1 the relative viability ([1]; first compound 0.005 µM) was 0.322, the relative viability ([1]; first compound 0.01581 µM) was 0.312 and the relative viability ([1]; first compound 0.05 µM) was 0.259. For the same cell line, the relative viability ([1]; first compound 0.1581 µM) was 0.262, the relative viability ([1]; first compound 0.5 µM) was 0.177 and the relative viability (TPCA-1 + Olaparib; first compound 0.04 µM) was 0.696. The relative viability (TPCA-1 + Olaparib; first compound 0.1265 µM) was 0.577, the relative viability (TPCA-1 + Olaparib; first compound 0.4 µM) was 0.801 and the relative viability (TPCA-1 + Olaparib; first compound 1.265 µM) was 0.611. It also gave a relative viability (TPCA-1 + Olaparib; first compound 4 µM) of 0.369, a relative viability (TPCA-1 + OSI-027; first compound 0.04 µM) of 0.589 and a relative viability (TPCA-1 + OSI-027; first compound 0.1265 µM) of 0.567. The relative viability (TPCA-1 + OSI-027; first compound 0.4 µM) was 0.558, the relative viability (TPCA-1 + OSI-027; first compound 1.265 µM) was 0.319 and the relative viability (TPCA-1 + OSI-027; first compound 4 µM) was 0.211. The relative viability (Lestaurtinib + Olaparib; first compound 0.005 µM) was 0.782, the relative viability (Lestaurtinib + Olaparib; first compound 0.01581 µM) was 0.676 and the relative viability (Lestaurtinib + Olaparib; first compound 0.05 µM) was 0.448. For the same cell line, the relative viability (Lestaurtinib + Olaparib; first compound 0.1581 µM) was 0.33 and the relative viability (Lestaurtinib + Olaparib; first compound 0.5 µM) was 0.175.
In the case of NCI-H1793, the relative viability ([1]; first compound 0.005 µM) is reported as 0.319, the relative viability ([1]; first compound 0.01581 µM) is reported as 0.224 and the relative viability ([1]; first compound 0.05 µM) is reported as 0.235. It also gave a relative viability ([1]; first compound 0.1581 µM) of 0.34, a relative viability ([1]; first compound 0.5 µM) of 0.263 and a relative viability (TPCA-1 + Olaparib; first compound 0.04 µM) of 0.982. It also gave a relative viability (TPCA-1 + Olaparib; first compound 0.1265 µM) of 0.735, a relative viability (TPCA-1 + Olaparib; first compound 0.4 µM) of 1.1 and a relative viability (TPCA-1 + Olaparib; first compound 1.265 µM) of 0.821. It also gave a relative viability (TPCA-1 + Olaparib; first compound 4 µM) of 0.546, a relative viability (TPCA-1 + OSI-027; first compound 0.04 µM) of 0.233 and a relative viability (TPCA-1 + OSI-027; first compound 0.4 µM) of 0.275. For the same cell line, the relative viability (TPCA-1 + OSI-027; first compound 1.265 µM) was 0.285, the relative viability (TPCA-1 + OSI-027; first compound 4 µM) was 0.139 and the relative viability (Lestaurtinib + Olaparib; first compound 0.005 µM) was 0.97. It also gave a relative viability (Lestaurtinib + Olaparib; first compound 0.01581 µM) of 1.05, a relative viability (Lestaurtinib + Olaparib; first compound 0.05 µM) of 0.549 and a relative viability (Lestaurtinib + Olaparib; first compound 0.1581 µM) of 0.848. For the same cell line, the relative viability (Lestaurtinib + Olaparib; first compound 0.5 µM) was 0.482.
For NCI-H2405, the relative viability ([1]; first compound 0.005 µM) was 0.417, the relative viability ([1]; first compound 0.01581 µM) was 0.404 and the relative viability ([1]; first compound 0.05 µM) was 0.356. It also gave a relative viability ([1]; first compound 0.1581 µM) of 0.345, a relative viability ([1]; first compound 0.5 µM) of 0.202 and a relative viability (TPCA-1 + Olaparib; first compound 0.04 µM) of 0.908. For the same cell line, the relative viability (TPCA-1 + Olaparib; first compound 0.1265 µM) was 0.833, the relative viability (TPCA-1 + Olaparib; first compound 0.4 µM) was 0.951 and the relative viability (TPCA-1 + Olaparib; first compound 1.265 µM) was 0.717. The relative viability (TPCA-1 + Olaparib; first compound 4 µM) was 0.691, the relative viability (TPCA-1 + OSI-027; first compound 0.04 µM) was 0.673 and the relative viability (TPCA-1 + OSI-027; first compound 0.1265 µM) was 0.6. The relative viability (TPCA-1 + OSI-027; first compound 0.4 µM) was 0.65, the relative viability (TPCA-1 + OSI-027; first compound 1.265 µM) was 0.36 and the relative viability (TPCA-1 + OSI-027; first compound 4 µM) was 0.629. The relative viability (Lestaurtinib + Olaparib; first compound 0.005 µM) was 0.98, the relative viability (Lestaurtinib + Olaparib; first compound 0.01581 µM) was 1.01 and the relative viability (Lestaurtinib + Olaparib; first compound 0.05 µM) was 0.913. It also gave a relative viability (Lestaurtinib + Olaparib; first compound 0.1581 µM) of 0.846 and a relative viability (Lestaurtinib + Olaparib; first compound 0.5 µM) of 0.486.
With LCLC-103H the relative viability ([1]; first compound 0.005 µM) was 0.61, the relative viability ([1]; first compound 0.01581 µM) was 0.623 and the relative viability ([1]; first compound 0.05 µM) was 0.521. For the same cell line, the relative viability ([1]; first compound 0.1581 µM) was 0.443, the relative viability ([1]; first compound 0.5 µM) was 0.481 and the relative viability (TPCA-1 + Olaparib; first compound 0.04 µM) was 0.747. It also gave a relative viability (TPCA-1 + Olaparib; first compound 0.1265 µM) of 0.788, a relative viability (TPCA-1 + Olaparib; first compound 0.4 µM) of 0.782 and a relative viability (TPCA-1 + Olaparib; first compound 1.265 µM) of 0.868. The relative viability (TPCA-1 + Olaparib; first compound 4 µM) was 0.779, the relative viability (TPCA-1 + OSI-027; first compound 0.04 µM) was 0.458 and the relative viability (TPCA-1 + OSI-027; first compound 0.1265 µM) was 0.44. For the same cell line, the relative viability (TPCA-1 + OSI-027; first compound 0.4 µM) was 0.485, the relative viability (TPCA-1 + OSI-027; first compound 1.265 µM) was 0.443 and the relative viability (TPCA-1 + OSI-027; first compound 4 µM) was 0.387. For the same cell line, the relative viability (Lestaurtinib + Olaparib; first compound 0.005 µM) was 0.872, the relative viability (Lestaurtinib + Olaparib; first compound 0.01581 µM) was 0.845 and the relative viability (Lestaurtinib + Olaparib; first compound 0.05 µM) was 0.719. For the same cell line, the relative viability (Lestaurtinib + Olaparib; first compound 0.1581 µM) was 0.655 and the relative viability (Lestaurtinib + Olaparib; first compound 0.5 µM) was 0.529.
